In publication PMC6722136, “Engineered Carbonic Anhydrase VI-Mimic Enzyme Switched the Structure and Affinities of Inhibitors” (Scientific Reports, 2019):
Read-outs that look alike come from different tables or passages of the source.

Columns and labels:
[1] = pKa of sulfonamide amino group of inhibitor; cited from earlier work
CA VI [2] = target: T1, CA VI (Homo sapiens, UniProt P23280); conditions: FTSA, pH 7.0, 37 °C; read-out: Kd_obs CA VI; cited from earlier work
T1 construct: made in house; host or cells: E. coli

[3] = target: T2, CA VI-mimic (CA II mutant A65T, N67Q, F130Y, V134Q, L203T) (Homo sapiens, UniProt P00918, A65T/F130Y/L203T/N67Q/V134Q); assay: Fluorescent thermal shift assay (FTSA), inhibitor binding to CA VI-mimic; conditions: for difference between Kd_obs and Kd_intr for CA VI-mimic / Kd: FTSA; for difference between Kd_obs and Kd_intr for CA VI-mimic: 37 °C; for Kd: read-out: Kd_obs CA VI-mimic
T2 construct: encoding full length CA II (1-260), was used in site-directed mutagenesis; made in house; host or cells: E. coli BL21(DE3)

CA II = target: T3, CA II (Homo sapiens, UniProt P00918); conditions: FTSA, pH 7.0, 37 °C; read-out: Kd_obs CA II; cited from earlier work
T3 construct: encoding full length CA II (1-260), was used in site-directed mutagenesis; made in house; host or cells: E. coli

CA VI [4] = target: T1, CA VI; assay: Stopped-flow CO2 hydration assay (SFA), inhibition of CA VI; assay type: biochemical
[5] = SFA pH 7.5, measured at 23 °C, extrapolated to 37 °C by van't Hoff equation, read-out: Kd_obs CA VI by SFA (in parentheses)
[6] = SFA, pH 7.5, 23 °C, read-out: Kd_obs CA VI by SFA

T1 sequence (P23280 18-308): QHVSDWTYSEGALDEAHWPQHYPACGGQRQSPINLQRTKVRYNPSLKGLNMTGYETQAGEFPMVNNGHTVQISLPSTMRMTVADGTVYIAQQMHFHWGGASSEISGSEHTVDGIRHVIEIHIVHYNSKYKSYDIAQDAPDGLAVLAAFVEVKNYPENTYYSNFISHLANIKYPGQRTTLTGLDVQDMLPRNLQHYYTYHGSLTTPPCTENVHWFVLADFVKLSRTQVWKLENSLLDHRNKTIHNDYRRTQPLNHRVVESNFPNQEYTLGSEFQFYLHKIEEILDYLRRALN

Row | SMILES | pKa_SA [1] | Kd (CA VI [2]) [µM] | further results
1 | NS(=O)(=O)C(F)(F)F [Inhibitor 1] | 6.02 | – | –
2 | CCOc1ccc2nc(S(N)(=O)=O)sc2c1 [Inhibitor 2] | 7.82 | – | –
3 | CC(=O)/N=c1/sc(S(N)(=O)=O)nn1C [Inhibitor 3] | 6.86 | – | –
4 | NS(=O)(=O)c1c(F)c(F)c(F)c(F)c1F [Inhibitor 4] | 8.12 | 0.43 | –
5 | NS(=O)(=O)c1c(F)c(F)c(N2CCOCC2)c(F)c1F [Inhibitor 5] | 8.61 | 1.1 | –
6 | NS(=O)(=O)c1c(F)c(F)c(SCCO)c(F)c1F [Inhibitor 6] | 8.14 | – | –
7 | NNc1c(F)c(F)c(S(N)(=O)=O)c(F)c1F [Inhibitor 7] | 8.84 | 1 | –
8 | NS(=O)(=O)c1c(F)c(F)c(NCc2ccccc2)c(F)c1F [Inhibitor 8] | 8.47 | 1.2 | –
9 | NS(=O)(=O)c1c(F)c(F)c(Sc2ccccc2)c(F)c1F [Inhibitor 9] | 7.80 | 0.2 | –
10 | NS(=O)(=O)c1c(F)c(F)c(S(=O)(=O)CCO)c(F)c1F [Inhibitor 10] | 7.28 | – | difference between Kd_obs and Kd_intr for CA VI-mimic [3]: lower than 10 fold
11 | NS(=O)(=O)c1c(F)c(F)c(S(=O)(=O)CCO)c(F)c1NCc1ccccc1 [Inhibitor 11] | 7.85 | 0.13 | Kd ([3]; pH 7.0, 37 °C): 0.14 µM; Kd (CA II): 0.083 µM
12 | NS(=O)(=O)c1c(F)c(F)c(Sc2nc(-c3ccccc3)c(-c3ccccc3)[nH]2)c(F)c1F [Inhibitor 12] | 7.69 | 0.14 | –
13 | NS(=O)(=O)c1c(F)c(F)c(Sc2nc3ccccc3s2)c(F)c1F [Inhibitor 13] | 7.83 | 0.2 | –
14 | Cc1cc(C)nc(Sc2c(F)c(F)c(S(N)(=O)=O)c(F)c2F)n1 [Inhibitor 14] | 8.02 | 1 | Kd (CA VI [4]; [5]): 0.63 µM; Kd (CA VI [4]; [6]): 0.29 µM
15 | NS(=O)(=O)c1c(F)c(F)c(SCCc2ccccc2)c(F)c1F [Inhibitor 15] | 8.05 | 0.4 | –
16 | NS(=O)(=O)c1ccc(SCCc2ccccc2)cc1 [Inhibitor 16] | 10.1 | 1.1 | difference between Kd_obs and Kd_intr for CA VI-mimic [3]: 2500 fold
17 | NS(=O)(=O)c1c(F)c(F)c(SCCc2ccccc2)c(F)c1N1CCOCC1 [Inhibitor 17] | 8.67 | 100 | Kd [3]: 100 µM
18 | NS(=O)(=O)c1c(F)c(F)c(S(=O)(=O)c2ccccc2)c(F)c1F [Inhibitor 18] | 7.07 | 0.16 | difference between Kd_obs and Kd_intr for CA VI-mimic [3]: lower than 10 fold
19 | NS(=O)(=O)c1c(F)c(F)c(SCCC(=O)O)c(F)c1F [Inhibitor 19] | 7.97 | 0.5 | –
20 | CC(C)Nc1c(F)c(SCCc2ccccc2)c(F)c(F)c1S(N)(=O)=O [Inhibitor 20] | 8.67 | 3.3 | Kd ([3]; pH 7.0, 37 °C): 2.5 µM
21 | COc1ccc(CNc2c(F)c(SCCc3ccccc3)c(F)c(F)c2S(N)(=O)=O)cc1OC [Inhibitor 21] | 8.67 | 20 | Kd ([3]; pH 7.0, 37 °C): 3.3 µM; Kd (CA II): 1.8 µM
22 | CCCSc1c(F)c(F)c(S(N)(=O)=O)c(F)c1F [Inhibitor 22] | 8.15 | 0.14 | –

Row | SMILES | pKa_SA [1] | Kd (CA VI [2]) [µM] | further results
23 | CCCSc1ccc(S(N)(=O)=O)cc1 [Inhibitor 23] | 10.2 | 0.83 | difference between Kd_obs and Kd_intr for CA VI-mimic [3]: 3200 fold; Kd (CA VI [4]; [5]): 3.9 µM; Kd (CA VI [4]; [6]): 1.8 µM
24 | COc1ccc(CNc2c(F)c(SCCO)c(F)c(F)c2S(N)(=O)=O)cc1OC [Inhibitor 24] | 8.67 | 11 | Kd ([3]; pH 7.0, 37 °C): 5 µM; Kd (CA II): 1.3 µM
25 | NS(=O)(=O)c1c(F)c(F)c(S(=O)(=O)CCO)c(NC2CCCCCCC2)c1F [Inhibitor 25] | 8.01 | – | –
26 | NS(=O)(=O)c1c(F)c(F)c(S(=O)(=O)CCc2ccccc2)c(F)c1F [Inhibitor 26] | 7.22 | 0.14 | difference between Kd_obs and Kd_intr for CA VI-mimic [3]: lower than 10 fold
27 | NS(=O)(=O)c1c(F)c(F)c(S(=O)(=O)CCc2ccccc2)c(NC2Cc3ccccc3C2)c1F [Inhibitor 27] | 7.87 | 2 | Kd ([3]; pH 7.0, 37 °C): 1 µM; Kd (CA II): 0.035 µM
28 | NS(=O)(=O)c1c(F)c(F)c(S(=O)(=O)CCc2ccccc2)c(NCc2ccccc2)c1F [Inhibitor 29] | 7.87 | 0.11 | Kd ([3]; pH 7.0, 37 °C): 0.2 µM
29 | NS(=O)(=O)c1ccc(SCCO)cc1 [Inhibitor 30] | 9.96 | – | –
30 | NS(=O)(=O)c1c(F)c(F)c(S(=O)(=O)CCc2ccccc2)c(N[C@H](c2ccccc2)[C@H](O)c2ccccc2)c1F [Inhibitor 31] | 7.87 | 1 | Kd ([3]; pH 7.0, 37 °C): 2 µM; weakening of intrinsic binding to CA VI-mimic relative to comparison compound ([3]; Kd_intr, 30 vs 23, 6 vs 22, 19 vs 22, 31 vs 26): 9 fold; Kd (CA II): 0.033 µM
31 | NS(=O)(=O)c1c(F)c(F)c(SCc2ccccc2)c(F)c1F [Inhibitor 32] | 8.53 | 0.33 | stronger intrinsic binding to CA VI-mimic than inhibitor 9 ([3]; Kd_intr): 4 fold; stronger intrinsic binding to CA VI-mimic than inhibitor 15 ([3]; Kd_intr): 2 fold
32 | CCOC(=O)c1cnc(SCC(=O)c2ccc(Cl)c(S(N)(=O)=O)c2)[nH]c1=O [Inhibitor 33] | 8.90 | – | –
33 | NS(=O)(=O)c1ccc(C(=O)CSc2ccccc2)cc1Cl [Inhibitor 34] | 8.70 | 1.1 | Kd ([3]; pH 7.0, 37 °C): 0.33 µM; Kd (CA II): 0.0056 µM
34 | Cc1cc(C)nc(SCC(=O)c2cccc(S(N)(=O)=O)c2)n1 [Inhibitor 35] | 9.40 | – | –
35 | CCc1cnc(SCC(=O)c2ccc(S(N)(=O)=O)c(Cl)c2)nc1 [Inhibitor 36] | 8.90 | – | –
36 | CCCc1cnc(SCC(=O)c2ccc(S(N)(=O)=O)c(Cl)c2)nc1 [Inhibitor 37] | 8.90 | – | –
37 | CCCc1cnc(SCC(=O)c2ccc(S(N)(=O)=O)cc2)nc1 [Inhibitor 38] | 9.40 | – | –
38 | Cc1cc(=O)[nH]c(SCC(=O)c2ccc(S(N)(=O)=O)c(Cl)c2)n1 [Inhibitor 39] | 8.90 | – | –
39 | NS(=O)(=O)c1cccc(C(=O)Cn2cnc3ccccc32)c1 [Inhibitor 40] | 9.60 | 6.7 | Kd ([3]; pH 7.0, 37 °C): 3.3 µM; Kd (CA II): 3.6 µM
40 | NS(=O)(=O)c1ccc(C(=O)Cn2cnc3ccccc32)cc1Cl [Inhibitor 41] | 8.30 | 3.3 | –
41 | NS(=O)(=O)c1ccc(C(=O)Cn2c(Cc3ccccc3)nc3ccccc32)cc1Cl [Inhibitor 42] | 8.70 | 1.4 | Kd ([3]; pH 7.0, 37 °C): 0.33 µM
42 | NS(=O)(=O)c1cccc(C(=O)Cn2c(Cc3ccccc3)nc3ccccc32)c1 [Inhibitor 43] | 9.60 | 10 | Kd ([3]; pH 7.0, 37 °C): 3.3 µM
43 | NS(=O)(=O)c1cccc(C(=O)CSc2nc3ccccc3s2)c1 [Inhibitor 44] | 9.60 | 3.3 | Kd ([3]; pH 7.0, 37 °C): 0.5 µM; Kd (CA II): 0.14 µM
44 | C=CCNc1nc(-c2ccc(S(N)(=O)=O)c(Cl)c2)cs1 [Inhibitor 46] | 9.40 | 17 | Kd ([3]; pH 7.0, 37 °C): 1.1 µM; Kd (CA II): 0.1 µM
